ChEMBL document CHEMBL4507317, “Data for DCP probe BAY-899” (2021)

Columns and labels:
[1] = molecular target: Serine/threonine-protein kinase Chk1 (Homo sapiens) (UniProt O14757); settings: Compound concentration 1000.0 nM
[2] = molecular target: Tyrosine-protein kinase JAK3 (Homo sapiens) (UniProt P52333); settings: Compound concentration 1000.0 nM
[3] = molecular target: SRSF protein kinase 2 (Homo sapiens) (UniProt P78362); settings: Compound concentration 1000.0 nM
[4] = molecular target: Phosphatidylinositol 4-phosphate 5-kinase type-1 gamma (Homo sapiens) (UniProt O60331); settings: Compound concentration 1000.0 nM
[5] = molecular target: Mitogen-activated protein kinase kinase kinase 9 (Homo sapiens) (UniProt P80192); settings: Compound concentration 1000.0 nM
[6] = test system: Tyrosine-protein kinase ABL1 (Homo sapiens), P00519 [T315I]; settings: Compound concentration 1000.0 nM
[7] = molecular target: Rhodopsin kinase GRK7 (Homo sapiens) (UniProt Q8WTQ7); settings: Compound concentration 1000.0 nM
[8] = molecular target: Mitogen-activated protein kinase kinase kinase kinase 2 (Homo sapiens) (UniProt Q12851); settings: Compound concentration 1000.0 nM
[9] = molecular target: Tyrosine-protein kinase receptor UFO (Homo sapiens) (UniProt P30530); settings: Compound concentration 1000.0 nM
[10] = molecular target: Cyclin-dependent kinase 4 (Homo sapiens) (UniProt P11802); settings: Compound concentration 1000.0 nM
[11] = molecular target: Receptor-type tyrosine-protein kinase FLT3 (Homo sapiens) (UniProt P36888); settings: Compound concentration 1000.0 nM
[12] = molecular target: Histamine H4 receptor (Homo sapiens) (UniProt Q9H3N8); settings: Compound concentration 10.0 uM
[13] = molecular target: Serine/threonine-protein kinase WNK1 (Homo sapiens) (UniProt Q9H4A3); settings: Compound concentration 1000.0 nM
[14] = molecular target: Mitogen-activated protein kinase kinase kinase kinase 4 (Homo sapiens) (UniProt O95819); settings: Compound concentration 1000.0 nM
[15] = molecular target: Calcium/calmodulin-dependent protein kinase type II subunit gamma (Homo sapiens) (UniProt Q13555); settings: Compound concentration 1000.0 nM
[16] = molecular target: Calcium/calmodulin-dependent protein kinase type II subunit alpha (Homo sapiens) (UniProt Q9UQM7); settings: Compound concentration 1000.0 nM
[17] = molecular target: MAP/microtubule affinity-regulating kinase 4 (Homo sapiens) (UniProt Q96L34); settings: Compound concentration 1000.0 nM
[18] = molecular target: Myosin light chain kinase family member 4 (Homo sapiens) (UniProt Q86YV6); settings: Compound concentration 1000.0 nM
[19] = molecular target: Ephrin type-A receptor 4 (Homo sapiens) (UniProt P54764); settings: Compound concentration 1000.0 nM
[20] = molecular target: Serine/threonine-protein kinase DCLK2 (Homo sapiens) (UniProt Q8N568); settings: Compound concentration 1000.0 nM
[21] = molecular target: Misshapen-like kinase 1 (Homo sapiens) (UniProt Q8N4C8); settings: Compound concentration 1000.0 nM
[22] = molecular target: Sodium-dependent serotonin transporter (Homo sapiens) (UniProt P31645); settings: Compound concentration 10.0 uM
[23] = molecular target: Serine/threonine-protein kinase WNK4 (Homo sapiens) (UniProt Q96J92); settings: Compound concentration 1000.0 nM
[24] = molecular target: Serine/threonine-protein kinase pim-3 (Homo sapiens) (UniProt Q86V86); settings: Compound concentration 1000.0 nM
[25] = molecular target: Dual specificity mitogen-activated protein kinase kinase 2 (Homo sapiens) (UniProt P36507); settings: Compound concentration 1000.0 nM
[26] = molecular target: Casein kinase I isoform alpha (Homo sapiens) (UniProt P48729); settings: Compound concentration 1000.0 nM
[27] = molecular target: Fibroblast growth factor receptor 3 (Homo sapiens) (UniProt P22607); settings: Compound concentration 1000.0 nM
[28] = molecular target: Serine/threonine-protein kinase ULK1 (Homo sapiens) (UniProt O75385); settings: Compound concentration 1000.0 nM
[29] = molecular target: Receptor tyrosine-protein kinase erbB-4 (Homo sapiens) (UniProt Q15303); settings: Compound concentration 1000.0 nM
[30] = test system: Hepatocyte growth factor receptor (Homo sapiens), P08581 [M1250T]; settings: Compound concentration 1000.0 nM
[31] = molecular target: Serine/threonine-protein kinase 38 (Homo sapiens) (UniProt Q15208); settings: Compound concentration 1000.0 nM
[32] = molecular target: Alpha-2C adrenergic receptor (Homo sapiens) (UniProt P18825); settings: Compound concentration 10.0 uM
[33] = molecular target: Serine/threonine-protein kinase LATS2 (Homo sapiens) (UniProt Q9NRM7); settings: Compound concentration 1000.0 nM
[34] = molecular target: 5-hydroxytryptamine receptor 3A (Homo sapiens) (UniProt P46098); settings: Compound concentration 10.0 uM
[35] = molecular target: Casein kinase I isoform gamma-3 (Homo sapiens) (UniProt Q9Y6M4); settings: Compound concentration 1000.0 nM
[36] = molecular target: T1, Alpha-2A adrenergic receptor (Homo sapiens) (UniProt P08913); settings: Compound concentration 10.0 uM
T1 sequence (whole entry): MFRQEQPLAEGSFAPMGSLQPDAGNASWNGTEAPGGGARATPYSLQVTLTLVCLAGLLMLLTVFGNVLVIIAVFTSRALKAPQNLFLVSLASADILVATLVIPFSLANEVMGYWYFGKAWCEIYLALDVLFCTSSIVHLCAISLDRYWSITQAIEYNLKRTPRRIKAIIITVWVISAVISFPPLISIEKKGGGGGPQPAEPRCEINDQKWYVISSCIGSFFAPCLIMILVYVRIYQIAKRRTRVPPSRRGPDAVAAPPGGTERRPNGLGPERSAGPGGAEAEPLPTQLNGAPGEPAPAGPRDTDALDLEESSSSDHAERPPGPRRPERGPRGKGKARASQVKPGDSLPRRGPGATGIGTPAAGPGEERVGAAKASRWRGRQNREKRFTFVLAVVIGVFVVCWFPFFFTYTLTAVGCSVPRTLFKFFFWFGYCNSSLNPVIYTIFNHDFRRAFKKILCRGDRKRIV

[37] = molecular target: Mitogen-activated protein kinase 15 (Homo sapiens) (UniProt Q8TD08); settings: Compound concentration 1000.0 nM
[38] = molecular target: Cyclin-dependent kinase 2 (Homo sapiens) (UniProt P24941); settings: Compound concentration 1000.0 nM
[39] = molecular target: Serine/threonine-protein kinase PAK 4 (Homo sapiens) (UniProt O96013); settings: Compound concentration 1000.0 nM

Chain of SRSF protein kinase 2 (Homo sapiens) (P78362 whole entry, looked up): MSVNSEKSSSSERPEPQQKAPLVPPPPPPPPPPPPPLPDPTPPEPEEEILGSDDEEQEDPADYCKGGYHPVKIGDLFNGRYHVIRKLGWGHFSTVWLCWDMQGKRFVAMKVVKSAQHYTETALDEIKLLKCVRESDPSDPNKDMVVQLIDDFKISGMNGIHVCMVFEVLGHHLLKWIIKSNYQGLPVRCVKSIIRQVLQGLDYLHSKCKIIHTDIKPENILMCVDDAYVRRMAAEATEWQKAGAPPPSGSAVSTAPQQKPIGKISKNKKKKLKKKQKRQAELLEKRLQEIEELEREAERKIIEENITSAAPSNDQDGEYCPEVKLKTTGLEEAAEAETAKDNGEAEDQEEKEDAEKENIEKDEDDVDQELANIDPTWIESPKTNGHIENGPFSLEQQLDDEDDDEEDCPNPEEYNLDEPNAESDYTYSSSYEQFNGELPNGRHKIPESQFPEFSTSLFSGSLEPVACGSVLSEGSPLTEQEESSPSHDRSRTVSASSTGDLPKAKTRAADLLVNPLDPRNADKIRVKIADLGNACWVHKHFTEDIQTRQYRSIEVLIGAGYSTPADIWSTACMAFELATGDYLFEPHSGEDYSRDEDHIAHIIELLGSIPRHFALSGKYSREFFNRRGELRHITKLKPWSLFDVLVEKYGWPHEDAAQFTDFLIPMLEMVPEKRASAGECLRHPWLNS
Chain of Sodium-dependent serotonin transporter (Homo sapiens) (P31645 whole entry, looked up): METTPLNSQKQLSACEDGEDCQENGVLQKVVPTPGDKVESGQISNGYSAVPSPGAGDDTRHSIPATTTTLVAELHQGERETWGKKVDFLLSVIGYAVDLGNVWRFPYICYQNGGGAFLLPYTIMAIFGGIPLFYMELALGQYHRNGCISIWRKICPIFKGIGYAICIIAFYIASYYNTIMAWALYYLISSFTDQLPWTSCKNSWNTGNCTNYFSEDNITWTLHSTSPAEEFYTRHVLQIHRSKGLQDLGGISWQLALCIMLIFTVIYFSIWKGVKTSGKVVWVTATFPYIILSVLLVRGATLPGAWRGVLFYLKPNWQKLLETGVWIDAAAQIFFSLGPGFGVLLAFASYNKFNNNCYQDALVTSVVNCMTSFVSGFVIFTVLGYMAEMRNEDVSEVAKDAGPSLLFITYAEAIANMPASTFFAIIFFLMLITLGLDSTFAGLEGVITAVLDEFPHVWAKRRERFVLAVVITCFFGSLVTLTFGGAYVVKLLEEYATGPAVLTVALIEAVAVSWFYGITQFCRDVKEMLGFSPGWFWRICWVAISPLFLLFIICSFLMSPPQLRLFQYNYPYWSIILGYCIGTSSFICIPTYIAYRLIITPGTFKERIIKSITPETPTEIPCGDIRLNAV
Chain of Phosphatidylinositol 4-phosphate 5-kinase type-1 gamma (Homo sapiens) (O60331 whole entry): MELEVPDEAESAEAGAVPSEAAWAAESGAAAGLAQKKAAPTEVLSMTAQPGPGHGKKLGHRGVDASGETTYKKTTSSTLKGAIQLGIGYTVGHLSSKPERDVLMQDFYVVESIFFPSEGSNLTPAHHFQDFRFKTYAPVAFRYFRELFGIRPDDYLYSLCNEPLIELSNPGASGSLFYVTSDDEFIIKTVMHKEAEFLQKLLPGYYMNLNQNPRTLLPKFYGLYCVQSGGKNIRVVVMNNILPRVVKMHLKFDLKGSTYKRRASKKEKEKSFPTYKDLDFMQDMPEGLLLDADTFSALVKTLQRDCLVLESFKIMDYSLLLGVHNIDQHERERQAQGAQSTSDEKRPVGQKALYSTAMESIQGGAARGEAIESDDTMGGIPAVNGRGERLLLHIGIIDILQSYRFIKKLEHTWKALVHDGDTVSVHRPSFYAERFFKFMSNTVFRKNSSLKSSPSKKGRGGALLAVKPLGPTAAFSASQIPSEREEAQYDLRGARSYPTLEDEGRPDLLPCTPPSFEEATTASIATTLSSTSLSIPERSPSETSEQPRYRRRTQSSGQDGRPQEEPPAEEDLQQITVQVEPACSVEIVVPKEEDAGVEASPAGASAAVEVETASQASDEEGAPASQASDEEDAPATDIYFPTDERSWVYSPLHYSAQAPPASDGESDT
Chain of 5-hydroxytryptamine receptor 3A (Homo sapiens) (P46098 whole entry, canonical isoform): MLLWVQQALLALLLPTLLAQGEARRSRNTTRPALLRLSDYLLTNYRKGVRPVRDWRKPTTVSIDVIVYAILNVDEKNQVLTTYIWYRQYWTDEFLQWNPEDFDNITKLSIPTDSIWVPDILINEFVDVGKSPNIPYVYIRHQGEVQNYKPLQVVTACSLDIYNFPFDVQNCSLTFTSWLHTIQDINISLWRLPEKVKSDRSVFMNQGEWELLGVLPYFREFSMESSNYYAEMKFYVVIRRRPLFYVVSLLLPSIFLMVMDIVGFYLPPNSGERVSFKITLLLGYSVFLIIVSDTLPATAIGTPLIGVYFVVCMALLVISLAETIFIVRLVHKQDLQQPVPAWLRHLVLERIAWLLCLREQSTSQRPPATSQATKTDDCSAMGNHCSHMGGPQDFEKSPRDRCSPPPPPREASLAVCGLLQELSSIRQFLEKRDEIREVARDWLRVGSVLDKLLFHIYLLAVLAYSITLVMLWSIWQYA
Chain of Serine/threonine-protein kinase ULK1 (Homo sapiens) (O75385 whole entry): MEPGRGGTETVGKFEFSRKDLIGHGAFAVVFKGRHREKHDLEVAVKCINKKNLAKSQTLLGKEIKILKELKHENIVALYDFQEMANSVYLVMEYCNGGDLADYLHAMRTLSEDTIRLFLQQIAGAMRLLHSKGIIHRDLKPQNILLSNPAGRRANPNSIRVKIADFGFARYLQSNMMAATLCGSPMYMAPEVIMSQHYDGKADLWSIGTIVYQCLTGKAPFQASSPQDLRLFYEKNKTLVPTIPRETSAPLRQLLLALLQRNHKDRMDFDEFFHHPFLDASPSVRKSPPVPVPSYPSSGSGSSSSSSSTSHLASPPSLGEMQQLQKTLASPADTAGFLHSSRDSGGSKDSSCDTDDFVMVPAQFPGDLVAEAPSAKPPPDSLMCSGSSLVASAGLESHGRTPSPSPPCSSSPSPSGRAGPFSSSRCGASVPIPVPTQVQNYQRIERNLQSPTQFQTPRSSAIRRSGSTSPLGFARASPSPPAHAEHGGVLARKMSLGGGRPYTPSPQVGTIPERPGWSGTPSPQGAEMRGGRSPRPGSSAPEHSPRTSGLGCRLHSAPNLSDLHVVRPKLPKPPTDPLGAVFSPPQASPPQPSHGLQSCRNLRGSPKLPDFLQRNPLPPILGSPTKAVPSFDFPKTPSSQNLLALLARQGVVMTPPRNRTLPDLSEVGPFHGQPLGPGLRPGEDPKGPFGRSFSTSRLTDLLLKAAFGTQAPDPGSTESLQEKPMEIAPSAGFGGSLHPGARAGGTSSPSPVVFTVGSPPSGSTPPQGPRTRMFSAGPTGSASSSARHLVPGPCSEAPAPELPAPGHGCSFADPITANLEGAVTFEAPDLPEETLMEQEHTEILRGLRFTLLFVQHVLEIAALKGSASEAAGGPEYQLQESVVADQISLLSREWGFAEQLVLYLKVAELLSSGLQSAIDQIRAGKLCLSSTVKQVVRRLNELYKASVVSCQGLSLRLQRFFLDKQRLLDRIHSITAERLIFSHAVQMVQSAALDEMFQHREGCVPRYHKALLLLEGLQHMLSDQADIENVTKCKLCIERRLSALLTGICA
Chain of Serine/threonine-protein kinase 38 (Homo sapiens) (Q15208 2-465 limits assumed): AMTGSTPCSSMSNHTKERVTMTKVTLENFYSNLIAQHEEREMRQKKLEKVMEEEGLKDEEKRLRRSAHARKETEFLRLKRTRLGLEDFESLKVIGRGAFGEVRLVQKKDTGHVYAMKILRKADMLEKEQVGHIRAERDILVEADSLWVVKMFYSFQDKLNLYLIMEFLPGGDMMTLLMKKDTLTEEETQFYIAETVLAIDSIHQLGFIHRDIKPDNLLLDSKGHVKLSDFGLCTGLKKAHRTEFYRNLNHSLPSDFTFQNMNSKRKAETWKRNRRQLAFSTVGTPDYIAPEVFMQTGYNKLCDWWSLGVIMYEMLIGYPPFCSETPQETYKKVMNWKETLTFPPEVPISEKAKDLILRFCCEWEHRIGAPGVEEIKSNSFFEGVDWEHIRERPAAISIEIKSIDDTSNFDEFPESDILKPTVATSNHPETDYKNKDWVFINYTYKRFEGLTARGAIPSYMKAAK
Chain of Mitogen-activated protein kinase kinase kinase kinase 2 (Homo sapiens) (Q12851 whole entry): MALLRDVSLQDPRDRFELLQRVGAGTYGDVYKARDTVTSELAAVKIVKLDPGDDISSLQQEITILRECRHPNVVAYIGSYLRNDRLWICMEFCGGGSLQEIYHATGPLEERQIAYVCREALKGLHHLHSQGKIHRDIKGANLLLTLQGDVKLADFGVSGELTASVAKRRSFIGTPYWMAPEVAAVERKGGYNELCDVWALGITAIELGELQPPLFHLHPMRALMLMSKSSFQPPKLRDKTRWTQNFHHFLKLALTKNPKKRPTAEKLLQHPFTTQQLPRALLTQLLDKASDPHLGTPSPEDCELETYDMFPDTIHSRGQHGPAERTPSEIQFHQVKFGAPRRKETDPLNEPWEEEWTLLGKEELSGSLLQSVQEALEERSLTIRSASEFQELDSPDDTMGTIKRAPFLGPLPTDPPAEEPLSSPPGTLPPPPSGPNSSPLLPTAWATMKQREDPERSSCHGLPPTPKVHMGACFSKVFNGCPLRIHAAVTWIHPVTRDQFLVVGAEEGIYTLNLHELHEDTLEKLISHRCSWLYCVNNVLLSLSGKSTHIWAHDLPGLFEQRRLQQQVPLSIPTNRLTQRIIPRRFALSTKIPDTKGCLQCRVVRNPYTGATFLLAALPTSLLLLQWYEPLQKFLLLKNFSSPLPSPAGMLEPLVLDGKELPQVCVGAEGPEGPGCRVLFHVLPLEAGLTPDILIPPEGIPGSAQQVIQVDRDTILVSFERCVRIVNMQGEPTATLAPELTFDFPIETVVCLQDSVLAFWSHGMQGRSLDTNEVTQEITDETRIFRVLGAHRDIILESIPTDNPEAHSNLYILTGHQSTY

O=C(Nc1ccc(Oc2ccc(F)cc2)cc1)N1CCc2ncccc2[C@H]1c1ccc(F)cc1 [BAY-897]
inactive: residual activity [1] 100% | residual activity [2] 100% | residual activity [3] 100% | residual activity [4] 96% | residual activity [5] 100% | residual activity [6] 98% | residual activity [7] 100% | residual activity [8] 95% | residual activity [9] 77% | residual activity [10] 100% | residual activity [11] 100% | inhibition [12] 7.56% | residual activity [13] 96% | residual activity [14] 100% | residual activity [15] 96% | residual activity [16] 88% | residual activity [17] 86% | residual activity [18] 97% | residual activity [19] 100% | residual activity [20] 87% | residual activity [21] 99% | inhibition [22] 21.1% | residual activity [23] 85% | residual activity [24] 79% | residual activity [25] 100% | residual activity [26] 97% | residual activity [27] 83% | residual activity [28] 89% | residual activity [29] 82% | residual activity [30] 97% | residual activity [31] 99% | inhibition [32] 8.47% | residual activity [33] 100% | inhibition [34] 4.7% | residual activity [35] 80% | inhibition [36] 7.16% | residual activity [37] 94% | residual activity [38] 90% | residual activity [39] 94%

O=C(Nc1cnc(Oc2ccc(F)cc2)nc1)N1CCc2ncccc2[C@@H]1c1ccc(F)cc1 [BAY-899]
inactive: residual activity [1] 84% | residual activity [2] 91% | residual activity [3] 100% | residual activity [4] 100% | residual activity [5] 92% | residual activity [6] 100% | residual activity [7] 100% | residual activity [8] 100% | residual activity [9] 76% | residual activity [10] 100% | residual activity [11] 90% | inhibition [12] -4.41% | residual activity [13] 100% | residual activity [14] 86% | residual activity [15] 80% | residual activity [16] 92% | residual activity [17] 91% | residual activity [18] 88% | residual activity [19] 88% | residual activity [20] 90% | residual activity [21] 100% | inhibition [22] 25.5% | residual activity [23] 81% | residual activity [24] 82% | residual activity [25] 93% | residual activity [26] 85% | residual activity [27] 89% | residual activity [28] 88% | residual activity [29] 97% | residual activity [30] 100% | residual activity [31] 91% | inhibition [32] 8.55% | residual activity [33] 99% | inhibition [34] 45.8% | residual activity [35] 87% | inhibition [36] 9.77% | residual activity [37] 93% | residual activity [38] 100% | residual activity [39] 82%
